These results are taken from US20060173022A1, “Heterocyclic amides, method for the production thereof, substances containing said heterocyclic amides, and use thereof as pesticides” (Bayer CropScience GmbH, priority 2003, published 2006).

Each structure is given as a SMILES string.

On to `CO/N=C/CCNC(=O)c1cnccc1C(F)(F)F` [Example I, N-(4-Trifluoromethylnicotinoyl)-3-aminopropionaldehyde O-methyl oxime], for which the melting point (as a rule, the temperature, or range, at which the solid turns liquid) is 80 to 82 °C.
